Measured values: article PMC7340027 (Cell Reports, 2020)
Where two headings read alike, the source gives them in different places. Marks after values point to notes of the source that are not given here.

Columns and labels:
Calu3 2B4 cells [1] = details: human
Calu3 2B4 cells [2] = system: Calu3 2B4 cells
Vero E6 cells [3] = system: Vero E6 cells
SARS-CoV-2 [4] = test: microbe, parasite or virus in culture; type: cell-based, SARS-CoV-2 clinical isolate 2019-nCoV/USA-WA1/2020
SARS-CoV-2 [5] = test: microbe, parasite or virus in culture; type: cell-based, SARS-CoV-2 clinical isolate 2019-nCoV/USA-WA1/2020; remark: listed apart in the source
HAE cultures [6] = system: HAE cultures
HAE cultures [7] = details: female, human
Vero E6 cells [8] = system: Vero E6 cells; remark: listed apart in the source
SARS-CoV-2 [9] = type: cell-based, SARS-CoV-2 clinical isolate 2019-nCoV/USA-WA1/2020
[10] = Severe acute respiratory syndrome coronavirus 2, Calu-3 2B4, read-out: EC90 (infectious viral titer)
[11] = Severe acute respiratory syndrome coronavirus 2, Calu-3 2B4, read-out: EC90 (qRT-PCR)
[12] = Severe acute respiratory syndrome coronavirus 2, Calu-3 2B4, read-out: Genome copy EC50
[13] = Severe acute respiratory syndrome coronavirus 2, Calu-3 2B4, read-out: Plaque assay EC50

Row | SMILES | RDV-TP at 24 h (Calu3 2B4 cells [1]) | cytotoxicity (Calu3 2B4 cells [2]) | cytotoxicity (Vero E6 cells [3]) | EC90 (SARS-CoV-2 [4]; [10]) [nM] | EC90 (SARS-CoV-2 [4]; [11]) [nM] | EC50 (SARS-CoV-2 [4]; [12]) [nM] | EC50 (SARS-CoV-2 [4]; [13]) [nM] | EC90 (SARS-CoV-2 [5]; Severe acute respiratory syndrome coronavirus 2, Vero C1008, read-out: EC90 (infectious viral titer)) [nM] | EC90 (SARS-CoV-2 [5]; Severe acute respiratory syndrome coronavirus 2, Vero C1008, read-out: EC90 (qRT-PCR)) [nM] | cytotoxicity (HAE cultures [6]) | difference in RDV-TP between the two HAE donor cultures (HAE cultures [7]) | RDV-TP at 24 h (Vero E6 cells [8]; African green monkey) | RDV-TP levels in Vero E6 cells lower than in HAE cultures (Vero E6 cells [8]; African green monkey) [fold] | RDV-TP levels in Vero E6 cells lower than in Calu3 2B4 (Vero E6 cells [8]; African green monkey (Vero E6) and human (Calu3 2B4)) | inhibition of infectious virus production (SARS-CoV-2 [9])
1 | N#C[C@@]1(c2ccc3c(N)ncnn23)O[C@H](CO)[C@@H](O)[C@H]1O [GS-441524] | 0.85 ± 0.16 ^e pmol/million cells | No significant cytotoxicity | No significant cytotoxicity | 1340 | 1370 | 1090 | 620 | 710 | 800 |  |  |  |  |  | 
2 | CCC(CC)COC(=O)[C@H](C)N[P@](=O)(OC[C@H]1O[C@@](C#N)(c2ccc3c(N)ncnn23)[C@H](O)[C@@H]1O)Oc1ccccc1 [RDV, Remdesivir] |  | No significant cytotoxicity | No significant cytotoxicity | 2480 | 1280 | 600 | 280 |  |  | did not cause cytotoxicity | less than 3 fold | 0.50 ± 0.15 ^d pmol/million cells | ~20 | approximately 4 fold | more than 100 fold
